Values joined by “and” are separate entries in the source; they are usually repeats but may differ in a detail not shown here. Equal values may be shown once. “Also recorded” adds a separate entry of the source.
Experiments:
SGLT2 = target: T1, SGLT2 (Homo sapiens, UniProt P31639); test: 1-NBDG uptake in HEK293 cells stably expressing SGLT2; format: cell-based
T1 construct: Human full-length SGLT2 cDNA (NM_003041.3) was synthesized; expressed in transfected cells; host or cells: HEK293, retroviral transduction with pMSCVpuro-SGLT2, puromycin selected
T1 sequence (P31639 1-672): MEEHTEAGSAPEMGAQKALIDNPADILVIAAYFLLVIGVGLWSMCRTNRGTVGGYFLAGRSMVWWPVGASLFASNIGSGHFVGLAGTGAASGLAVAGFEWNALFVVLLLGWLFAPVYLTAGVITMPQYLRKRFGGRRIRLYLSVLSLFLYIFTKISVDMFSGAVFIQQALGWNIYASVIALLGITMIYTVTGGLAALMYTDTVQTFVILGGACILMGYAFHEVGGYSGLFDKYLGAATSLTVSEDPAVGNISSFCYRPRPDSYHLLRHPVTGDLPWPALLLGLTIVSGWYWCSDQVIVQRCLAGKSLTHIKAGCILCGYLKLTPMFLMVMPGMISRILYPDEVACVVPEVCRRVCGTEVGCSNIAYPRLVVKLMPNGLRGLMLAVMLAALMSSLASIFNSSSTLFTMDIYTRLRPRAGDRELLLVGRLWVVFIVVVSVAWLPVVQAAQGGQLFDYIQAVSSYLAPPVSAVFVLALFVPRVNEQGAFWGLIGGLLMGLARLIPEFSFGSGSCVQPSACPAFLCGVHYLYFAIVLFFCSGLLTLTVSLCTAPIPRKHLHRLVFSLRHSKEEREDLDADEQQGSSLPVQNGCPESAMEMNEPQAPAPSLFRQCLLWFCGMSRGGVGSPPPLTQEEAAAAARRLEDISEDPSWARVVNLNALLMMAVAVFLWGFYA

KKAy mice [1] = test: Urinary glucose excretion in T2DM KKAy mice; format: in vivo; conditions: for glucose in urine: 46a 100 mg kg^‒1 or dapagliflozin 5mg/kg, individual mice
Procedure: (§1) To evaluate the hypoglycemic effect of 46a in type 2 diabetes mellitus (T2DM), female KKAy mice weighing 42–48 g were obtained from the Animal Center of the Institute of Laboratory Animal Sciences, Chinese Academy of Medical Sciences and Peking Union Medical College. […] Blood samples were collected at 1, 2, 4, 6, 8, 24, and 48 h after treatment. […] The glucose levels in urine 4 h and 6 h after administration were also determined using a Biosen C-Line Glucose analyzer (EKF Diagnostics, Germany).

KKAy mice [2] = test: Hypoglycemic effect in T2DM KKAy mice, blood glucose; format: in vivo; conditions: for blood glucose: individual mice
Procedure: as §1

SGLT1 = target: T2, SGLT1 (Homo sapiens, UniProt P13866); test: 1-NBDG uptake in HEK293 cells stably expressing SGLT1; format: cell-based; conditions: HEK293, compound at 10 μM; triplicate; read-out: SGLT1 inhibitory rates
T2 construct: The full-length SGLT1 cDNA was obtained by PCR with forward primer; expressed in transfected cells
T2 sequence (P13866 1-664): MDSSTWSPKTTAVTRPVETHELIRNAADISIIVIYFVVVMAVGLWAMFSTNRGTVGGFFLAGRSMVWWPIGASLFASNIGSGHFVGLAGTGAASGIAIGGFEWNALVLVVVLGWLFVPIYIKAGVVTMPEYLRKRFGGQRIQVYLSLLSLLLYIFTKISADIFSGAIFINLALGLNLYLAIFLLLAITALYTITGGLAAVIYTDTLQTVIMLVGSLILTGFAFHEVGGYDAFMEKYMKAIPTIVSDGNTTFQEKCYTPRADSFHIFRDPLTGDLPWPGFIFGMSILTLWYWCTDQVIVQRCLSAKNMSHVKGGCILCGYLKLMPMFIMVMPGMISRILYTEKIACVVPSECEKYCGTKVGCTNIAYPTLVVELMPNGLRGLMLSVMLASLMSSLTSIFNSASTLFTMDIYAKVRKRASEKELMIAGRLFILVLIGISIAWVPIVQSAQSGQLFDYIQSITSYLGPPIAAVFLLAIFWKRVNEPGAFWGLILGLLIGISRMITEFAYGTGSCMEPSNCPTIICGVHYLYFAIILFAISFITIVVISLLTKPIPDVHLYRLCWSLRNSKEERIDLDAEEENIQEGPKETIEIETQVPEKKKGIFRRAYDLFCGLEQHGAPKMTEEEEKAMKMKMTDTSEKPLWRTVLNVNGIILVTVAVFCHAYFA

ICR mice = test: Oral glucose-tolerance test (OGTT) in normal ICR mice; format: in vivo; conditions: for OD505nm (blood glucose, GOD assay) in OGTT: individual mice
Procedure: The hypoglycemic effect of 46a was firstly evaluated by oral glucose-tolerance test (OGTT) in mice with normal blood glucose levels. Male Institute of Cancer Research (ICR) mice weighing 24–26 g were obtained from Beijing Vital River Laboratory Animal Technology Co., Ltd (Beijing, China) and divided into three groups (n = 7–8). […] After 2 h of fasting, blood samples were collected from the tails for determination of baseline values of blood glucose (0 min). The mice were then orally administered glucose (2 g kg^‒1 BW), and blood samples were collected at 15, 30, 60, and 120 min. A glucose oxidase (GOD) assay was used for blood glucose-level measurement. The values of area under the glucose-time curve (AUC) were calculated.

alloxan-induced DM mice = test: Hypoglycemic effect in alloxan-induced diabetic mellitus (DM) mice; format: in vivo; conditions: for OD505nm (nonfasting blood glucose): individual mice
Procedure: Type 1 diabetes mellitus (T1DM) mice were established by intravenous injection of alloxan tetrahydrate (68 mg kg^‒1 BW). […] Nonfasting blood glucose was kinetically monitored at 1, 2, 4, 6, 8, 24, and 48 h after treatment with 46a.

AbCGT = AbCGT (Aloe vera, UniProt A0A7G9P699); test: Sugar donor promiscuity of AbCGT with phloretin (17) as acceptor; format: biochemical, Aloe barbadensis; conditions: sugar donor with phloretin (17) as acceptor; Reaction-1 to -3
Chain of AbCGT (A0A7G9P699 entry or part of it): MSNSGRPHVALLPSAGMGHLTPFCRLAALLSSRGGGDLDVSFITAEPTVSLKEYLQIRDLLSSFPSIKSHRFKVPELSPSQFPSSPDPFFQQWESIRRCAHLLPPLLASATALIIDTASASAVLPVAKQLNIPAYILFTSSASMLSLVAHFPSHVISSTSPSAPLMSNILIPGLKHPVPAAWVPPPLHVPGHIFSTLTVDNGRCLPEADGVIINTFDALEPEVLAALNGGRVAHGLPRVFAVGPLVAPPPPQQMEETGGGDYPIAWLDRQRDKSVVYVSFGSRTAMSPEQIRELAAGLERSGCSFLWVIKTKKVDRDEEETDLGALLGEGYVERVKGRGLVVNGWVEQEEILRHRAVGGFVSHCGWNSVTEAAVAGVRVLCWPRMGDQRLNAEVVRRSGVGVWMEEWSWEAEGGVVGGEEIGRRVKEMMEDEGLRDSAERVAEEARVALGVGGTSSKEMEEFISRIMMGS
Procedure: The reaction mixture contained 0.5 mM sugar donors (1.0 mM for di-glycosylation), 0.25 mM aglycons, 50 mM Tris-HCl (pH 7.4), and 50‒100 μg of purified AbCGT in a final volume of 100 μL. Due to the instability of some acceptors in the buffer of pH 11.0, the reactions were performed under the physiological conditions (pH 7.4, 30 °C) to compare the catalytic activities of AbGT27 with different substrates under the same conditions. The reactions were performed at 30 °C for up to 12 h and terminated by the addition of 200 μL of ice-cold methanol. Subsequently, samples were centrifuged at 15,000 × g for 30 min to collect the supernatant, and aliquots were analyzed by HPLC-UV/ESIMS. HPLC analysis was performed on a Shiseido CAPCELL PAK C18 MG III column (250 mm × 4.6 mm I.D., 5 μm, Shiseido Co., Ltd., Japan) at a flow rate of 1 mL min^‒1. The mobile phase was a gradient elution of solvents A (0.1% formic acid aqueous solution) and B (methanol). The gradient programs were used for the analysis of the reactions (Supplementary Table 6). The conversion rates of the enzyme reactions were calculated from peak areas of glycosylated products and substrates as analyzed by HPLC. To facilitate inferential statistical analysis, three parallel assays were routinely performed; the means ± SD from triplicate analyses are reported here.

SMILES: Cc1ccc(Cc2c(O)cc(O)c(C3OC(CO)C(O)C(O)C3O)c2O)cc1 (stereo not drawn) [Compound 46a]
- inhibition at 10 µM (SGLT2; HEK293, compound at 10 μM, triplicate, read-out: SGLT2 inhibitory rates): > 96%
- SGLT2 inhibitory rates (SGLT2; compound at 10 μM, triplicate, 10 µM): 100%
- increase of SGLT2 inhibitory activity compared to the unsubstituted glycoside 38a (SGLT2; from IC50 values, 46a vs 38a): more than 17 times
- glucose in urine (KKAy mice [1]; 4h): 11366 mg/dL and 12692 mg/dL and 12124 mg/dL
- glucose in urine (KKAy mice [1]; 6h): 8584 mg/dL and 12278 mg/dL and 11404 mg/dL and 9012 mg/dL
- urinary glucose excretion (in words) (KKAy mice [1]; single administration): elevated urinary glucose excretion; also recorded: promoted urinary glucose excretion
- blood glucose (KKAy mice [2]; 0h, KKAy mice, single dose 46a 100 mg kg^‒1 or dapagliflozin 5 mg kg^‒1): 391.7 mg/dL and 463.4 mg/dL and 285.8 mg/dL and 498.6 mg/dL and 457.9 mg/dL and 376.2 mg/dL and 436.2 mg/dL
- blood glucose (KKAy mice [2]; 1h, same doses): 205.3 mg/dL and 315 mg/dL and 262 mg/dL and 341.1 mg/dL and 283 mg/dL and 307.9 mg/dL and 329 mg/dL
- blood glucose (KKAy mice [2]; 2h, same doses): 212.4 mg/dL and 285.2 mg/dL and 250.2 mg/dL and 371.1 mg/dL and 288 mg/dL and 260.7 mg/dL and 328.6 mg/dL
- blood glucose (KKAy mice [2]; 4h, same doses): 205.2 mg/dL and 255.5 mg/dL and 229.1 mg/dL and 299.5 mg/dL and 368.8 mg/dL and 243.8 mg/dL and 201.2 mg/dL
- blood glucose (KKAy mice [2]; 6h, same doses): 206.4 mg/dL and 242.8 mg/dL and 220.9 mg/dL and 332.5 mg/dL and 314.8 mg/dL and 301 mg/dL and 171 mg/dL
- blood glucose (KKAy mice [2]; 8h, same doses): 215.9 mg/dL and 255.1 mg/dL and 195.2 mg/dL and 297 mg/dL and 255.7 mg/dL and 245.8 mg/dL and 197.4 mg/dL
- blood glucose (KKAy mice [2]; 24h, same doses): 269.1 mg/dL and 338.2 mg/dL and 240.2 mg/dL and 308.3 mg/dL and 291.4 mg/dL and 330 mg/dL and 166.4 mg/dL
- blood glucose (KKAy mice [2]; 48h, same doses): 250.5 mg/dL and 412.5 mg/dL and 265.3 mg/dL and 242.5 mg/dL and 425.9 mg/dL and 396 mg/dL and 189.5 mg/dL
- blood glucose level (in words) (KKAy mice [2]; KKAy mice, single administration, vs control (solvent-treated) group): decreased at 1 h after 46a administration and was maintained at a lower level for 24 h; also recorded: lowered the blood glucose
- inhibition at 10 µM (SGLT1): 50.4%
- OD505nm (blood glucose, GOD assay) in OGTT (ICR mice; 0 min, ICR mice, oral 46a 100 mg kg^‒1 or dapagliflozin 5 mg kg^‒1): 0.153 and 0.163 and 0.176 and 0.168 and 0.167 and 0.175 and 0.178
- OD505nm (blood glucose, GOD assay) in OGTT (ICR mice; 15 min after glucose 2 g kg^‒1, oral 46a 100 mg kg^‒1 or dapagliflozin 5 mg kg^‒1): 0.178 and 0.123 and 0.205 and 0.183 and 0.193 and 0.203 and 0.189
- OD505nm (blood glucose, GOD assay) in OGTT (ICR mice; 30 min after glucose, same doses): 0.183 and 0.213 and 0.193 and 0.202 and 0.218 and 0.205 and 0.211
- OD505nm (blood glucose, GOD assay) in OGTT (ICR mice; 60 min after glucose, same doses): 0.19 (2×) and 0.208 and 0.2 and 0.178 and 0.187 and 0.202
- OD505nm (blood glucose, GOD assay) in OGTT (ICR mice; 120 min after glucose, same doses): 0.169 and 0.181 and 0.185 and 0.187 and 0.178 (2×) and 0.207
- blood glucose after glucose loading / glucose tolerance (in words) (ICR mice; ICR mice, 100 mg kg^‒1 46a oral): significantly lowered the peak value of blood glucose after glucose loading; also recorded: enhanced glucose tolerance
- OD505nm (nonfasting blood glucose) (alloxan-induced DM mice; 0h, alloxan-induced DM mice, single dose 46a 100 mg kg^‒1 or dapagliflozin 5 mg kg^‒1): 0.431 and 0.458 and 0.49 and 0.52 and 0.521 and 0.444 and 0.562 and 0.464
- OD505nm (nonfasting blood glucose) (alloxan-induced DM mice; 1h, same doses): 0.26 and 0.308 (2×) and 0.339 and 0.305 and 0.23 and 0.256 and 0.248
- OD505nm (nonfasting blood glucose) (alloxan-induced DM mice; 2h, same doses): 0.231 and 0.293 and 0.455 and 0.311 and 0.26 and 0.191 and 0.29 and 0.211
- OD505nm (nonfasting blood glucose) (alloxan-induced DM mice; 4h, same doses): 0.321 and 0.404 and 0.412 and 0.349 and 0.326 and 0.246 and 0.294 and 0.251
- OD505nm (nonfasting blood glucose) (alloxan-induced DM mice; 8h, same doses): 0.424 and 0.434 and 0.432 and 0.559 and 0.489 and 0.42 and 0.457 and 0.316
- OD505nm (nonfasting blood glucose) (alloxan-induced DM mice; 24h, same doses): 0.5 and 0.59 and 0.679 and 0.688 and 0.606 and 0.51 and 0.507 and 0.483
- OD505nm (nonfasting blood glucose) (alloxan-induced DM mice; 48h, same doses): 0.317 and 0.566 and 0.646 and 0.639 and 0.631 and 0.47 and 0.542 and 0.494
- hypoglycemic activity (in words) (alloxan-induced DM mice; alloxan-induced DM mice, oral single administration): exhibited obviously hypoglycemic activity

SMILES: CC(=O)NC1C(OP(=O)(O)OP(=O)(O)OCC2OC(n3ccc(=O)[nH]c3=O)C(O)C2O)OC(CO)C(O)C1O (stereo not drawn) [f]
- conversion rates, O,N,S-glycosylation (AbCGT): 0%
- conversion rates, di-C-glycosylation (AbCGT): 0%
- conversion rates, mono-C-glycosylation (AbCGT): 0%
